SMILES strings stand for the structures.

The experiment relates to skin fungal conditions. Description: Patients with skin fungal conditions treated with griseovulvin and an appropriate antibiotic, emollients ceased (Example 6). The format is in vivo, human. An excerpt:
Most patients received an antihistamine for the first ten days to control itch. The patients ceased the use of lotions and other emollients, as well as the use of local and systemic corticosteroids.

With `COC1=CC(=O)C[C@@H](C)[C@]12Oc1c(Cl)c(OC)cc(OC)c1C2=O` [griseovulvin], the “Appearance of "dry skin"” value (Patient A, after 35 days of treatment) was “cleared up considerably”. In addition, the Fungus on skin entry (Patient B, one week later) is listed as “improved dramatically” and the Fungus on skin entry (Patient C, after treatment) is “significantly improved”. Where the note is “Patient D, after seven weeks”, the “Fungus growth on back of neck” value is “significantly diminished”. Besides, where the note is “Patient F, after seven weeks of treatment”, the “Fungal condition of skin” value was “improving and peeling off”. For the same compound, the “Fungal infection tinea barbae” value (Patient G, after seven weeks) is “significantly cleared”. Also, the “Skin with hair follicles infected by fungus” value (Patient H, after nine weeks of treatment) is on record as “dramatically improved”.

(Values after patent US20020106342A1, “Methods for treating atopic disorders” (priority 2000, published 2002).)
